Assay results from patent publication US20170305893A1 (Thomas Helledays Stiftelse for Medicinsk Forskning, priority 2014, published 2017).

System: human cancer cell lines
Assay: not given
Conditions: three types of human cancer cell lines; cited from earlier work
For COc1cc(C(=O)n2ccc3c([N+](=O)[O-])c(OC)ccc32)cc(OC)c1OC [(5-methoxy-4-nitroindol-1-yl)(3,4,5-trimethoxy-phenyl)methanone], the antiproliferative activity is given as “does not show any activity”.

Target: T1, DCTPP1 (Homo sapiens, UniProt Q9H773)
T1 sequence (Q9H773 1-170): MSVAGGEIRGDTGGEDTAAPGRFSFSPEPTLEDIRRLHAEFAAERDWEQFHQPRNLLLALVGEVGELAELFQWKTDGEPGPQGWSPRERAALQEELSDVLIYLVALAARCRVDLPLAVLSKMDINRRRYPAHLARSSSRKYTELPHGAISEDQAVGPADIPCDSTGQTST
Assay: DCTPP1 inhibition assay (malachite green)
Assay type: biochemical
Conditions: 35 nM DCTPP1, 35 μM dCTP, 20 minutes at 22° C.; read-out: IC50
Description: DCTPP1 catalyzes the hydrolysis of dCTP to dCMP and PPi. By coupling the reaction to pyrophosphatase added in excess PPi is converted to Pi that can be detected by using the malachite green assay reagent. […] DCTPP1 diluted in assay buffer (100 mM Tris-acetate, 100 mM KCl, 10 mM magnesium acetate, 1 mM DTT and 0.005% Tween 20) fortified with E. coli pyrophosphatase (0.2 U/mL) is added to a final concentration of 35 nM. dCTP diluted in assay buffer is added to a final concentration of 35 μM. The reaction mixture is incubated with shaking for 20 minutes at 22° C. To 100 μl reaction mixture is added […] Malachite green assay reagent (0.095% Malachite green in 17% H2SO4, 1.5% Ammonium molybdate, 0.17% Tween 20) added followed by incubation with shaking for 15 minutes at 22° C. The absorbance of the assay plate is read at 630 nm using a SpectraMax plate reader (Molecular Devices).
Work on O=[N+]([O-])c1c(Cl)c(Cl)cc2c1nc(C1CC1)n2Cc1ccc(B(O)O)cc1 [Compound 2.2.45, (4-((5,6-dichloro-2-cyclopropyl-4-nitro-1H-benzo[d]imidazol-1-yl)methyl)phenyl)boronic acid] yielded an IC50 of 27 nM.
Work on Cc1nc2c([N+](=O)[O-])c(Cl)c(Cl)cc2n1Cc1ccc(B2OC(C)(C)C(C)(C)O2)cc1 [Compound 2.2.49, 5,6-dichloro-2-methyl-4-nitro-1-(4-(4,4,5,5-tetramethyl-1,3,2-dioxaborolan-2-yl)benzyl)-1H-benzo[d]imidazole] yielded an IC50 of 30 nM.
Work on COc1ccc(Cn2c(C(F)(F)F)nc3c([N+](=O)[O-])c(C)c(C)cc32)cc1 [Compound 2.2.58, 1-(4-methoxybenzyl)-5,6-dimethyl-4-nitro-2-(trifluoromethyl)-1H-benzo[d]imidazole] yielded an IC50 of 14 nM.
Compound Cc1nc2c([N+](=O)[O-])c(Cl)c(Cl)cc2n1Cc1ccc(B2OC(=O)CN(C)CC(=O)O2)cc1 [Compound 2.2.50, 2-(4-((5,6-dichloro-2-methyl-4-nitro-1H-benzo[d]imidazol-1-yl)methyl)phenyl)-6-methyl-1,3,6,2-dioxazaborocane-4,8-dione] has an IC50 of 44 nM.

Same assay, conditions: 35 nM DCTPP1, 35 μM dCTP, 20 minutes at 22° C.; read-out: IC50 (nM), class
With Cc1nc(Cn2c(C)nc3c([N+](=O)[O-])c(Cl)c(Cl)cc32)cs1 [Compound 2.2.42, 4-((5,6-dichloro-2-methyl-4-nitro-1H-benzo[d]imidazol-1-yl)methyl)-2-methylthiazole] the IC50 was 100 to 500 nM.
CC(=O)Oc1ccc(Cn2c(C)nc3c([N+](=O)[O-])c(Cl)c(Cl)cc32)cc1 [Compound 2.2.22, 4-((5,6-dichloro-2-methyl-4-nitro-1H-benzo[d]imidazol-1-yl)methyl)phenyl acetate] showed an IC50 of under 100 nM.
With C=CC(=O)c1ccc(Cn2c(C)nc3c([N+](=O)[O-])c(Cl)c(Cl)cc32)cc1 [Compound 2.2.30, 1-(4-((5,6-dichloro-2-methyl-4-nitro-1H-benzo[d]imidazol-1-yl)methyl)phenyl)prop-2-en-1-one] the IC50 was under 100 nM.
Cc1nc2c([N+](=O)[O-])c(F)c(F)cc2n1C(C)c1ccccc1 (stereo not shown) [Compound 2.2.14, 5,6-difluoro-2-methyl-4-nitro-1-(1-phenylethyl)-1H-benzo[d]imidazole] showed an IC50 of at least 1000 nM.
In the case of O=[N+]([O-])c1c(Cl)c(Cl)cc2c1nc(C1CC1)n2Cc1ccc(B(O)O)cc1 [Compound 2.2.45, (4-((5,6-dichloro-2-cyclopropyl-4-nitro-1H-benzo[d]imidazol-1-yl)methyl)phenyl)boronic acid], the IC50 is reported as under 100 nM.
COc1ccc(Cn2c(-c3ccccc3)nc3c([N+](=O)[O-])cccc32)cc1 [Compound 2.2.2, 1-(4-methoxybenzyl)-4-nitro-2-phenyl-1H-benzo[d]imidazole] showed an IC50 of at least 1000 nM.
COc1cccc(Cn2c(C)nc3c([N+](=O)[O-])c(Cl)c(Cl)cc32)c1 [Compound 2.2.21, 5,6-dichloro-1-(3-methoxybenzyl)-2-methyl-4-nitro-1H-benzo[d]imidazole] gave an IC50 of 100 to 500 nM.
Cc1nc2c([N+](=O)[O-])c(Cl)c(Cl)cc2n1CCc1ccc(B(O)O)cc1 [Compound 2.2.51, (4-(2-(5,6-dichloro-2-methyl-4-nitro-1H-benzo[d]imidazol-1-yl)ethyl)phenyl)boronic acid] showed an IC50 of 100 to 500 nM.
Work on COc1ccc(Cn2c(OC)nc3c([N+](=O)[O-])cccc32)cc1 [Compound 2.2.5, 2-methoxy-1-(4-methoxybenzyl)-4-nitro-1H-benzo[d]imidazole] yielded an IC50 of at least 1000 nM.
For COc1ccc(Cn2c(Cc3ccccc3)nc3c([N+](=O)[O-])cccc32)cc1 [Compound 2.2.3, 2-benzyl-1-(4-methoxybenzyl)-4-nitro-1H-benzo[d]imidazole], the IC50 was at least 1000 nM.
Work on Cc1n[nH]c(C)c1CCn1c(C)nc2c([N+](=O)[O-])c(Cl)c(Cl)cc21 [Compound 2.2.33, 5,6-dichloro-1-(2-(3,5-dimethyl-1H-pyrazol-4-yl)ethyl)-2-methyl-4-nitro-1H-benzo[d]imidazole] yielded an IC50 of 100 to 500 nM.
For Cc1nc2c([N+](=O)[O-])c(Cl)c(Cl)cc2n1-c1ccccc1 [Compound 2.2.16, 5,6-dichloro-2-methyl-4-nitro-1-phenyl-1H-benzo[d]imidazole], the IC50 was under 100 nM.
For COc1ccc(Cn2c(C(C)C)nc3c([N+](=O)[O-])cccc32)cc1 [Compound 2.2.7, 2-isopropyl-1-(4-methoxybenzyl)-4-nitro-1H-benzo[d]imidazole], the IC50 was at least 1000 nM.
Cc1cc2c(nc(C)n2Cc2ccc(OC(F)(F)F)cc2)c([N+](=O)[O-])c1C [Compound 2.2.57, 2,5,6-trimethyl-4-nitro-1-(4-(trifluoromethoxy)benzyl)-1H-benzo[d]imidazole] showed an IC50 of 100 to 500 nM.
Cc1nc2c([N+](=O)[O-])c(Cl)c(Cl)cc2n1Cc1ccc(-n2cccn2)cc1 [Compound 2.2.34, 1-(4-(1H-pyrazol-1-yl)benzyl)-5,6-dichloro-2-methyl-4-nitro-1H-benzo[d]imidazole] gave an IC50 of under 100 nM.
Work on Cc1nc2cc(F)c(F)c([N+](=O)[O-])c2n1Cc1ccc(B(O)O)cc1 [Compound 2.3.4, (4-((5,6-difluoro-2-methyl-7-nitro-1H-benzo[d]imidazol-1-yl)methyl)phenyl)boronic acid] yielded an IC50 of 500 to 1000 nM.
In the case of COc1ccc(Cn2c(Cc3ccccc3)nc3cccc([N+](=O)[O-])c32)cc1 [Compound 2.3.1, 2-benzyl-1-(4-methoxybenzyl)-7-nitro-1H-benzo[d]imidazole], the IC50 is reported as at least 1000 nM.
With Cc1nc2c([N+](=O)[O-])c(Cl)c(Cl)cc2n1Cc1ccc(C=O)cc1 [Compound 2.2.27, 4-((5,6-dichloro-2-methyl-4-nitro-1H-benzo[d]imidazol-1-yl)methyl)benzaldehyde] the IC50 was 100 to 500 nM.
Compound Cc1nc2c([N+](=O)[O-])c(F)c(F)cc2n1Cc1ccc(C#N)cc1 [Compound 2.2.11, 4-((5,6-difluoro-2-methyl-4-nitro-1H-benzo[d]imidazol-1-yl)methyl)benzonitrile] has an IC50 of at least 1000 nM.
Cc1nc2c([N+](=O)[O-])c(F)c(F)cc2n1Cc1ccc(F)cc1 [Compound 2.2.12, 5,6-difluoro-1-(4-fluorobenzyl)-2-methyl-4-nitro-1H-benzo[d]imidazole] gave an IC50 of 500 to 1000 nM.
